Test results taken from ChEMBL document CHEMBL1201862, “PubChem BioAssay data set” (2004).
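All cell lines were grown in 96-well plates and treated with compound for 48 hours. Abbreviation: GI50, concentration required for 50% inhibition of growth.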 Calls of active or inactive are those of the source. No stated cut-off is given here; in the data, active = GI50 up to about 1.1 µM and inactive = higher.

Key:
Test in all cases: NCI anticancer screen, dose series, 48 h
SNB-75 = test system: SNB-75
CCRF-CEM = test system: CCRF-CEM
M14 = test system: M14
HCC 2998 = test system: HCC 2998
BT-549 = test system: BT-549
COLO 205 = test system: COLO 205
MDA-MB-231 = test system: MDA-MB-231
LOX IMVI = test system: LOX IMVI
SK-MEL-5 = test system: SK-MEL-5
NCI-H460 = test system: NCI-H460
OVCAR-4 = test system: OVCAR-4
SK-OV-3 = test system: SK-OV-3
RPMI-8226 = test system: RPMI-8226
Malme-3M = test system: Malme-3M
IGROV-1 = test system: IGROV-1
SF-295 = test system: SF-295
HOP-62 = test system: HOP-62
NCI-H23 = test system: NCI-H23
NCI-H522 = test system: NCI-H522
ACHN = test system: ACHN
CAKI-1 = test system: CAKI-1
Hs-578T = test system: Hs-578T
SW-620 = test system: SW-620
UO-31 = test system: UO-31
TK-10 = test system: TK-10
OVCAR-5 = test system: OVCAR-5
HL-60 = test system: HL-60
OVCAR-8 = test system: OVCAR-8
MOLT-4 = test system: MOLT-4
DU-145 = test system: DU-145
NCI/ADR-RES = test system: NCI/ADR-RES
SK-MEL-28 = test system: SK-MEL-28
A549 = test system: A549
RXF 393 = test system: RXF 393
HCT-15 = test system: HCT-15
EKVX = test system: EKVX
HT-29 = test system: HT-29
T47D = test system: T47D
SF-539 = test system: SF-539
KM12 = test system: KM12
HOP-92 = test system: HOP-92
786-0 = test system: 786-0
K562 = test system: K562
UACC-257 = test system: UACC-257
A498 = test system: A498
UACC-62 = test system: UACC-62
SR = test system: SR
HCT-116 = test system: HCT-116
OVCAR-3 = test system: OVCAR-3
NCI-H226 = test system: NCI-H226
SN12C = test system: SN12C
SF-268 = test system: SF-268
MDA-MB-435 = test system: MDA-MB-435
SK-MEL-2 = test system: SK-MEL-2
SNB-19 = test system: SNB-19
MCF7 = test system: MCF7
U-251 = test system: U-251
PC-3 = test system: PC-3
MDA-N = test system: MDA-N

Measured: GI50

Cc1cn(S(=O)(=O)c2ccccc2)c2c(OCc3ccccc3)cc(NC(=O)c3cc4cc([N+](=O)[O-])ccc4s3)cc12
> 100 µM: HCT-15
inactive: SNB-75 68.9 µM | CCRF-CEM 38.9 µM | M14 37.8 µM | HCC 2998 > 100 µM | BT-549 > 100 µM | COLO 205 > 100 µM | MDA-MB-231 49.1 µM | LOX IMVI > 100 µM | SK-MEL-5 > 100 µM | NCI-H460 > 100 µM | OVCAR-4 > 100 µM | SK-OV-3 > 100 µM | RPMI-8226 > 100 µM | Malme-3M 89.7 µM | IGROV-1 > 100 µM | SF-295 58.7 µM | HOP-62 > 100 µM | NCI-H23 > 100 µM | NCI-H522 > 100 µM | ACHN > 100 µM | CAKI-1 > 100 µM | Hs-578T > 100 µM | SW-620 > 100 µM | UO-31 > 100 µM | TK-10 > 100 µM | OVCAR-5 > 100 µM | HL-60 91 µM | OVCAR-8 > 100 µM | MOLT-4 59.6 µM | DU-145 > 100 µM | NCI/ADR-RES > 100 µM | SK-MEL-28 > 100 µM | A549 > 100 µM | RXF 393 > 100 µM | EKVX > 100 µM

Nc1nc(Cl)cc(/N=N\c2ccccc2)n1
inactive: SNB-75 38.7 µM | CCRF-CEM 13 µM | HT-29 31.3 µM | M14 31.8 µM | T47D 32.6 µM | BT-549 72.4 µM | SF-539 78.9 µM | KM12 92.5 µM | COLO 205 27.5 µM | MDA-MB-231 22.1 µM | HOP-92 2.33 µM | LOX IMVI 18.5 µM | 786-0 30.6 µM | SK-MEL-5 15.8 µM | K562 2.14 µM | UACC-257 36.1 µM | SK-OV-3 66.1 µM | RPMI-8226 20.7 µM | Malme-3M 83.8 µM | A498 61.5 µM | IGROV-1 16.6 µM | SF-295 30.7 µM | HOP-62 24.1 µM | NCI-H23 21 µM | UACC-62 28.2 µM | NCI-H522 30.6 µM | ACHN 26.6 µM | CAKI-1 37.6 µM | Hs-578T 35.9 µM | SW-620 > 100 µM | SR 9.79 µM | UO-31 42.1 µM | TK-10 61.2 µM | HCT-116 16.4 µM | OVCAR-5 72.1 µM | HL-60 6.38 µM | OVCAR-3 11.7 µM | OVCAR-8 33.2 µM | MOLT-4 18.5 µM | DU-145 > 100 µM | NCI/ADR-RES 39.8 µM | NCI-H226 45.2 µM | SN12C 43 µM | SK-MEL-28 > 100 µM | SF-268 29.5 µM | MDA-MB-435 > 100 µM | A549 48.2 µM | RXF 393 30.3 µM | SK-MEL-2 20.8 µM | SNB-19 45.8 µM | MCF7 48.1 µM | EKVX 37.2 µM
12.5 µM: HCT-15

COc1ccc(C2c3c(n(C)c(=O)n(C)c3=O)OC(N(C)C)(N(C)C)C2(F)F)cc1 (centres undefined)
> 100 µM: HCT-15
inactive: SNB-75 > 100 µM | CCRF-CEM > 100 µM | M14 > 100 µM | HCC 2998 > 100 µM | T47D > 100 µM | BT-549 > 100 µM | U-251 > 100 µM | SF-539 > 100 µM | KM12 > 100 µM | COLO 205 > 100 µM | MDA-MB-231 > 100 µM | HOP-92 > 100 µM | LOX IMVI > 100 µM | 786-0 > 100 µM | SK-MEL-5 > 100 µM | K562 3.2 µM | NCI-H460 > 100 µM | UACC-257 > 100 µM | OVCAR-4 > 100 µM | SK-OV-3 > 100 µM | RPMI-8226 > 100 µM | A498 > 100 µM | PC-3 > 100 µM | SF-295 > 100 µM | HOP-62 > 100 µM | NCI-H23 > 100 µM | UACC-62 > 100 µM | ACHN > 100 µM | CAKI-1 > 100 µM | SW-620 > 100 µM | UO-31 > 100 µM | TK-10 > 100 µM | HCT-116 > 100 µM | OVCAR-5 > 100 µM | OVCAR-3 > 100 µM | MOLT-4 2.92 µM | DU-145 > 100 µM | NCI/ADR-RES > 100 µM | NCI-H226 > 100 µM | SK-MEL-28 > 100 µM | SF-268 > 100 µM | MDA-MB-435 > 100 µM | A549 > 100 µM | RXF 393 > 100 µM | SK-MEL-2 > 100 µM | SNB-19 > 100 µM | MCF7 > 100 µM | EKVX > 100 µM

Cc1ccc(N/C(Sc2ccccc2)=C(/C(Cl)=C(Cl)Cl)[N+](=O)[O-])c(C)c1
inactive: CCRF-CEM 17.9 µM | HT-29 18.3 µM | M14 21.5 µM | HCC 2998 17.7 µM | BT-549 15.5 µM | U-251 13.8 µM | SF-539 21.7 µM | KM12 17.3 µM | COLO 205 20.9 µM | MDA-MB-231 18.9 µM | HOP-92 14 µM | LOX IMVI 14.5 µM | 786-0 16.5 µM | SK-MEL-5 25.1 µM | K562 18 µM | NCI-H460 16.8 µM | UACC-257 18.2 µM | OVCAR-4 23.7 µM | SK-OV-3 37.8 µM | RPMI-8226 20.3 µM | Malme-3M 17.5 µM | A498 21.8 µM | PC-3 17.7 µM | IGROV-1 19.5 µM | SF-295 25.1 µM | HOP-62 23.8 µM | NCI-H23 22.9 µM | UACC-62 30.6 µM | NCI-H522 17.8 µM | ACHN 32.8 µM | CAKI-1 17 µM | Hs-578T 44.4 µM | SW-620 19.7 µM | SR 23.3 µM | TK-10 45.6 µM | HCT-116 17.1 µM | OVCAR-5 17.8 µM | HL-60 18.2 µM | OVCAR-8 34.5 µM | MOLT-4 19.6 µM | DU-145 36.1 µM | NCI/ADR-RES 23.7 µM | NCI-H226 24.6 µM | SN12C 18.4 µM | SK-MEL-28 18.5 µM | SF-268 14 µM | MDA-MB-435 14.4 µM | A549 33.8 µM | SK-MEL-2 19.5 µM | SNB-19 22.3 µM | MCF7 14.4 µM | EKVX 22.1 µM
16.8 µM: HCT-15

Nc1ncnc2c1ncn2C1OC(CO)=CC1O (centres undefined)
inactive: SNB-75 > 37.5 µM | CCRF-CEM > 37.5 µM | HT-29 > 37.5 µM | M14 > 37.5 µM | HCC 2998 > 37.5 µM | T47D > 37.5 µM | U-251 > 37.5 µM | SF-539 > 37.5 µM | KM12 > 37.5 µM | COLO 205 > 37.5 µM | MDA-MB-231 > 37.5 µM | HOP-92 > 37.5 µM | LOX IMVI > 37.5 µM | 786-0 > 37.5 µM | SK-MEL-5 > 37.5 µM | MDA-N > 37.5 µM | K562 > 37.5 µM | NCI-H460 > 37.5 µM | UACC-257 > 37.5 µM | OVCAR-4 > 37.5 µM | SK-OV-3 > 37.5 µM | RPMI-8226 > 37.5 µM | Malme-3M > 37.5 µM | A498 > 37.5 µM | PC-3 > 37.5 µM | IGROV-1 > 37.5 µM | SF-295 > 37.5 µM | HOP-62 > 37.5 µM | NCI-H23 > 37.5 µM | UACC-62 > 37.5 µM | NCI-H522 > 37.5 µM | ACHN > 37.5 µM | CAKI-1 > 37.5 µM | Hs-578T > 37.5 µM | SW-620 > 37.5 µM | SR > 37.5 µM | UO-31 > 37.5 µM | TK-10 > 37.5 µM | HCT-116 > 37.5 µM | OVCAR-5 > 37.5 µM | HL-60 > 37.5 µM | OVCAR-3 > 37.5 µM | OVCAR-8 > 37.5 µM | MOLT-4 > 37.5 µM | DU-145 > 37.5 µM | NCI/ADR-RES > 37.5 µM | NCI-H226 > 37.5 µM | SN12C > 37.5 µM | SK-MEL-28 > 37.5 µM | SF-268 > 37.5 µM | MDA-MB-435 > 37.5 µM | A549 > 37.5 µM | RXF 393 > 37.5 µM | SK-MEL-2 > 37.5 µM | SNB-19 > 37.5 µM | MCF7 > 37.5 µM | EKVX > 37.5 µM
> 37.5 µM: HCT-15
